Molecular target: human σ1 receptor and human μ-opioid receptor
Test: Human σ1 receptor radioligand assay and human μ-opioid receptor radioligand assay (results reported only as combined μ and σ1 dual binding)
Parameters: key to μ and σ1 dual binding: +: Both Ki-μ and Ki-σ1>=500 nM; ++: One Ki<500 nM while the other Ki is >=500 nM; +++: Both Ki-μ and Ki-σ1<500 nM; ++++: Both Ki-μ and Ki-σ1<100 nM
Details: Ki at human σ1 receptor (HEK-293 membranes, [3H](+)-pentazocine) and human μ-opioid receptor (CHO-K1 membranes, [3H]-DAMGO), one combined class
Protocol: To investigate binding properties of σ1 receptor ligands to human σ1 receptor, transfected HEK-293 membranes and [^3H](+)-pentazocine (Perkin Elmer, NET-1056), as the radioligand, were used. The assay was carried out with 7 μg of membrane suspension, 5 nM of [^3H](+)-pentazocine in either absence or presence of either buffer or 10 μM Haloperidol for total and non-specific binding, respectively. Binding buffer contained Tris-HCl 50 mM at pH 8. Plates were incubated at 37° C. for 120 minutes. After the incubation period, the reaction mix was then transferred to MultiScreen HTS, FC plates (Millipore), filtered and plates were washed 3 times with ice-cold 10 mM Tris-HCL (pH7.4). Filters were dried and counted at approximately 40% efficiency in a MicroBeta scintillation counter (Perkin-Elmer) using EcoScint liquid scintillation cocktail
To investigate binding properties of μ-opioid receptor ligands to human μ-opioid receptor, transfected CHO-K1 cell membranes and [^3H]-DAMGO (Perkin Elmer, ES-542-C), as the radioligand, were used. The assay was carried out with 20 μg of membrane suspension, 1 nM of [^3H]-DAMGO in either absence or presence of either buffer or 10 μM Naloxone for total and non-specific binding, respectively. Binding buffer contained Tris-HCl 50 mM, MgCl2 5 mM at pH 7.4. Plates were incubated at 27° C. for 60 minutes. After the incubation period, the reaction mix was then transferred to MultiScreen HTS, FC plates (Millipore), filtered and plates were washed 3 times with ice-cold 10 mM Tris-HCL (pH 7.4). Filters were dried and counted at approximately 40% efficiency in a MicroBeta scintillation counter (Perkin-Elmer) using EcoScint liquid scintillation cocktail.

| Structure (SMILES) | Ki | μ and σ1 dual binding |
| --- | --- | --- |
| O=C(Nc1ccc(C(=O)O)cc1)Oc1cccc(C2CCN(Cc3cn(Cc4ccccn4)nn3)CC2)c1 [Example 4] | < 500 nM |  |
| CCNC(=O)Oc1cccc(C2CCN(Cc3cn(-c4ccccc4)nn3)CC2)c1 [Example 1, 3-(1-((1-phenyl-1H-1,2,3-triazol-4-yl)methyl)piperidin-4-yl)phenyl ethylcarbamate] | < 500 nM |  |
| CC(C)C(=O)Oc1cccc(C2CCN(Cc3cn(Cc4ccccn4)nn3)CC2)c1 [Example 5, 3-(1-((1-(pyridin-2-ylmethyl)-1H-1,2,3-triazol-4-yl)methyl)piperidin-4-yl)phenyl isobutyrate] | < 500 nM |  |
| COc1cccc(C2CCN(Cc3cn(-c4ccc(F)cc4)nn3)CC2)c1 [Example 2, 1-((1-(4-fluorophenyl)-1H-1,2,3-triazol-4-yl)methyl)-4-(3-methoxyphenyl)piperidine] |  | ++ |
| COCCOc1cccc(C2CCN(Cc3cn(-c4ccccc4)nn3)CC2)c1 [Example 10, 4-(3-(2-methoxyethoxy)phenyl)-1-((1-phenyl-1H-1,2,3-triazol-4-yl)methyl)piperidine] | < 500 nM |  |
| O=C(Oc1cccc(C2CCN(Cc3cn(Cc4ccccn4)nn3)CC2)c1)[C@@H]1CCCN1 [Example 18, (S)-3-(1-((1-(pyridin-2-ylmethyl)-1H-1,2,3-triazol-4-yl)methyl)piperidin-4-yl)phenyl pyrrolidine-2-carboxylate] | < 500 nM |  |
| COc1cccc(C2CCN(Cc3cn(-c4ccccc4)nn3)CC2)c1 [Example 7, 4-(3-methoxyphenyl)-1-((1-phenyl-1H-1,2,3-triazol-4-yl)methyl)piperidine] | < 500 nM |  |
| COCCCOc1cccc(C2CCN(Cc3cn(-c4ccccc4)nn3)CC2)c1 [Example 11, 4-(3-(3-methoxypropoxy)phenyl)-1-((1-phenyl-1H-1,2,3-triazol-4-yl)methyl)piperidine] | < 500 nM |  |
| CN(C)C(=O)Oc1cccc(C2CCN(Cc3cn(-c4ccccc4)nn3)CC2)c1 [Example 8, 3-(1-((1-phenyl-1H-1,2,3-triazol-4-yl)methyl)piperidin-4-yl)phenyl dimethylcarbamate] | < 500 nM |  |
| COc1cccc(C2CCN(Cc3cn(C(CO)c4ccccc4)nn3)CC2)c1 (centres unmarked) [Example 17, 2-(4-((4-(3-methoxyphenyl)piperidin-1-yl)methyl)-1H-1,2,3-triazol-1-yl)-2-phenylethanol] |  | ++ |
| CC(C)[C@H](N)C(=O)Oc1cccc(C2CCN(Cc3cn(Cc4ccccn4)nn3)CC2)c1 [Example 6, (S)-3-(1-((1-(pyridin-2-ylmethyl)-1H-1,2,3-triazol-4-yl)methyl)piperidin-4-yl)phenyl 2-amino-3-methylbutanoate] | < 500 nM |  |
| CC(C)[C@H](NC(=O)Oc1cccc(C2CCN(Cc3cn(Cc4ccccn4)nn3)CC2)c1)C(=O)O [Example 13] | ≥ 500 nM |  |
| N[C@@H](Cc1ccccc1)C(=O)Oc1cccc(C2CCN(Cc3cn(Cc4ccccn4)nn3)CC2)c1 [Example 19, (S)-3-(1-((1-(pyridin-2-ylmethyl)-1H-1,2,3-triazol-4-yl)methyl)piperidin-4-yl)phenyl 2-amino-3-phenylpropanoate] | < 500 nM |  |
| COc1cccc(C2CCN(Cc3cn(Cc4ccc(F)cn4)nn3)CC2)c1 [Example 16, 5-fluoro-2-((4-((4-(3-methoxyphenyl)piperidin-1-yl)methyl)-1H-1,2,3-triazol-1-yl)methyl)pyridine] |  | ++ |
| COc1cccc(C2CCN(Cc3cn(Cc4ncccc4F)nn3)CC2)c1 [Example 15, 3-fluoro-2-((4-((4-(3-methoxyphenyl)piperidin-1-yl)methyl)-1H-1,2,3-triazol-1-yl)methyl)pyridine] |  | ++ |
| COc1cccc(C2CCN(Cc3cn(Cc4ccccn4)nn3)CC2)c1 [Example 12, 2-((4-((4-(3-methoxyphenyl)piperidin-1-yl)methyl)-1H-1,2,3-triazol-1-yl)methyl)pyridine] |  | ++ |
| CC(=O)Oc1cccc(C2CCN(Cc3cn(Cc4ccccn4)nn3)CC2)c1 [Example 3, 3-(1-((1-(pyridin-2-ylmethyl)-1H-1,2,3-triazol-4-yl)methyl)piperidin-4-yl)phenyl acetate] |  | ++ |
| NC1(C(=O)Oc2cccc(C3CCN(Cc4cn(Cc5ccccn5)nn4)CC3)c2)CCCCC1 [Example 20, 3-(1-((1-(pyridin-2-ylmethyl)-1H-1,2,3-triazol-4-yl)methyl)piperidin-4-yl)phenyl 1-aminocyclohexanecarboxylate] | ≥ 500 nM |  |
| CC(=O)Oc1cccc(C2CCN(Cc3cn(-c4ccccc4)nn3)CC2)c1 [Example 9, 3-(1-((1-phenyl-1H-1,2,3-triazol-4-yl)methyl)piperidin-4-yl)phenyl acetate] | < 100 nM |  |
| O=C(O)CNC(=O)Oc1cccc(C2CCN(Cc3cn(Cc4ccccn4)nn3)CC2)c1 [Example 14] | ≥ 500 nM |  |

— patent US9902711B2, “Piperidine compounds having multimodal activity against pain” (LABORATORIOS DEL DR. ESTEVE S.A., priority 2013, dated 2018)
